Data reported in ChEMBL document CHEMBL1201862, “PubChem BioAssay data set” (2004).
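How tested: cells in 96-well plates exposed to compound for 48 hours at five concentrations. GI50: concentration for 50% inhibition of growth.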 Activity calls are given as the source filed them. Rule as the data show it: active = GI50 up to about 1.1 µM and inactive = higher. Where a SMILES comes first, the peptide text is derived from it. The star is where a group is joined. Boc = CC(C)(C)OC(=O)*; OBn = c1ccc(CO*)cc1

How the values were obtained:
Test in all cases: NCI tumour cell line growth inhibition, 48 h
HT-29 = test system: HT-29
A549 = test system: A549
LOX IMVI = test system: LOX IMVI
MOLT-4 = test system: MOLT-4
K562 = test system: K562
Hs-578T = test system: Hs-578T
HCT-15 = test system: HCT-15
MCF7 = test system: MCF7
Malme-3M = test system: Malme-3M
OVCAR-5 = test system: OVCAR-5
IGROV-1 = test system: IGROV-1
SNB-19 = test system: SNB-19
786-0 = test system: 786-0
COLO 205 = test system: COLO 205
SK-MEL-5 = test system: SK-MEL-5
MDA-MB-231 = test system: MDA-MB-231
RPMI-8226 = test system: RPMI-8226
T47D = test system: T47D
OVCAR-4 = test system: OVCAR-4
HL-60 = test system: HL-60

Row | SMILES | GI50 (HT-29) | GI50 (A549) | GI50 (LOX IMVI) | GI50 (MOLT-4) | GI50 (K562) | GI50 (Hs-578T) | GI50 (HCT-15) [µM] | GI50 (MCF7) | GI50 (Malme-3M) | GI50 (OVCAR-5) | GI50 (IGROV-1) | GI50 (SNB-19) | GI50 (786-0) | GI50 (COLO 205) | GI50 (SK-MEL-5) | GI50 (MDA-MB-231) | GI50 (RPMI-8226) | GI50 (T47D) | GI50 (OVCAR-4) | GI50 (HL-60)
1 | Cc1csc(NC23CC4CC(CC(C4)C2)C3)[n+]1C(P(=O)([O-])O)P(=O)(O)O (configuration not stated) | > 100 µM (inactive) | > 100 µM (inactive) | > 100 µM (inactive) | > 100 µM (inactive) | > 100 µM (inactive) | > 100 µM (inactive) | > 100 | > 100 µM (inactive) | > 100 µM (inactive) | > 100 µM (inactive) | > 100 µM (inactive) | > 100 µM (inactive) | > 100 µM (inactive) | > 100 µM (inactive) | > 100 µM (inactive) | > 100 µM (inactive) | > 100 µM (inactive) |  |  | 
2 | CC[C@]1(Cc2ccc(OC)c(OC)c2)[C@@H]2C[C@@H](C3OCCO3)ON2O[C@H](OC2CCCC2(c2ccccc2)c2ccccc2)[C@@H]1OC(C)=O (some centres not stated) | 23.5 µM (inactive) | 24 µM (inactive) | 23.3 µM (inactive) | 10.1 µM (inactive) | 17.7 µM (inactive) |  | 14.5 | 22.5 µM (inactive) |  | 17.9 µM (inactive) | 23.3 µM (inactive) | 18.1 µM (inactive) | 20 µM (inactive) | 26.9 µM (inactive) | 18.5 µM (inactive) | 44.3 µM (inactive) |  | 18.7 µM (inactive) |  | 
3 | Clc1ccc(-c2cc(-c3cc4cc(Br)ccc4nc3Cl)on2)cc1 | 17.5 µM (inactive) | 13.2 µM (inactive) | 10 µM (inactive) | 14.1 µM (inactive) | 15.1 µM (inactive) | 22.8 µM (inactive) | 16.2 | 13.1 µM (inactive) | 18.8 µM (inactive) | 1.4 µM (inactive) | 12.9 µM (inactive) | 26.7 µM (inactive) | 18.9 µM (inactive) | 8.28 µM (inactive) | 9.12 µM (inactive) |  | 15.4 µM (inactive) | 15 µM (inactive) | 16.2 µM (inactive) | 1.7 µM (inactive)
4 | CCCCSc1nsc(N(C(=O)c2ccccc2)C(=O)c2ccccc2)n1 | 29.8 µM (inactive) | 36.5 µM (inactive) | 26.9 µM (inactive) | 24.2 µM (inactive) | 29.7 µM (inactive) | 31.2 µM (inactive) | 30.3 | 32.2 µM (inactive) | 26.9 µM (inactive) | 26.5 µM (inactive) | 41.1 µM (inactive) | 45.5 µM (inactive) | 32 µM (inactive) | 20.4 µM (inactive) | 18.8 µM (inactive) |  | 21.6 µM (inactive) | 37.9 µM (inactive) | 57.5 µM (inactive) | 28.1 µM (inactive)
5 | COc1cccc(C(=O)N2CCc3ccccc32)c1OC | 38.9 µM (inactive) | > 100 µM (inactive) | 87.7 µM (inactive) | 23 µM (inactive) | 34.7 µM (inactive) |  | 21 |  | 60.4 µM (inactive) | > 100 µM (inactive) | > 100 µM (inactive) | 74.8 µM (inactive) | > 100 µM (inactive) | 58.7 µM (inactive) | 69.8 µM (inactive) |  | 35.3 µM (inactive) |  | 48.9 µM (inactive) | 27.8 µM (inactive)
6 | Cc1ccc(C2(N3CCCC3)OC(C)(C)c3cccc4cccc2c34)cc1 (configuration not stated) | 13.4 µM (inactive) | 11 µM (inactive) | 15.7 µM (inactive) | 20.7 µM (inactive) | 22.3 µM (inactive) | 15.6 µM (inactive) | 15.6 | 17.1 µM (inactive) | 18.1 µM (inactive) | 15.8 µM (inactive) | 15.9 µM (inactive) | 16.3 µM (inactive) | 18.7 µM (inactive) | 15.6 µM (inactive) | 15 µM (inactive) |  | 22.3 µM (inactive) | 16.3 µM (inactive) | 14.5 µM (inactive) | 30.8 µM (inactive)
7 | CCc1c(C)[nH]c2c1/C(=N/N=C1\CCCc3[nH]c(C)c(CC)c31)CCC2 | 27.4 µM (inactive) | 27.9 µM (inactive) | 20.9 µM (inactive) | 12.8 µM (inactive) | 16.7 µM (inactive) |  | 19.4 |  | > 100 µM (inactive) | 25.6 µM (inactive) | 20 µM (inactive) | 41.4 µM (inactive) | > 100 µM (inactive) | 17.9 µM (inactive) | 14.2 µM (inactive) |  | 7.67 µM (inactive) |  | 18.1 µM (inactive) | 11.9 µM (inactive)
8 | CCOc1nc(-c2ccccc2)cc(-c2ccc(N3CCOCC3)cc2)c1C#N | > 100 µM (inactive) | > 100 µM (inactive) | > 100 µM (inactive) | > 100 µM (inactive) | > 100 µM (inactive) | > 100 µM (inactive) | > 100 | > 100 µM (inactive) | > 100 µM (inactive) | > 100 µM (inactive) | > 100 µM (inactive) | > 100 µM (inactive) | > 100 µM (inactive) | > 100 µM (inactive) | 42.5 µM (inactive) | > 100 µM (inactive) | 77.4 µM (inactive) |  | > 100 µM (inactive) | > 100 µM (inactive)
9 | Cc1ccc(C)c(NC(=O)CC/C(=N\NC(=O)c2c(O)ccc3ccccc23)C(C)C(=O)c2ccc(O)cc2)c1 (configuration not stated) | 46.9 µM (inactive) | 65 µM (inactive) | 18.7 µM (inactive) | 27.2 µM (inactive) | 32.8 µM (inactive) |  | 26.5 |  | 34.8 µM (inactive) | 37.5 µM (inactive) | 52 µM (inactive) | 11.6 µM (inactive) | 28.5 µM (inactive) | 25.2 µM (inactive) | 41.3 µM (inactive) |  | 94.4 µM (inactive) |  | 29.9 µM (inactive) | 5.26 µM (inactive)
10 | C1=N\c2ccc(cc2)/N=C\c2ccccc2OCc2cccc(n2)COc2ccccc2/1 | > 100 µM (inactive) | > 100 µM (inactive) | > 100 µM (inactive) | > 100 µM (inactive) | > 100 µM (inactive) |  | > 100 | > 100 µM (inactive) | > 100 µM (inactive) | > 100 µM (inactive) | 75.2 µM (inactive) | 21.1 µM (inactive) | 45.5 µM (inactive) | > 100 µM (inactive) | > 100 µM (inactive) | 78.3 µM (inactive) |  | > 100 µM (inactive) | > 100 µM (inactive) | > 100 µM (inactive)
11 | Cc1cc(C2(O)C=C(C(C)(C)C)C(=O)C(C(C)(C)C)=C2)c(C)cc1C1(O)C=C(C(C)(C)C)C(=O)C(C(C)(C)C)=C1 | > 100 µM (inactive) | > 100 µM (inactive) | > 100 µM (inactive) | > 100 µM (inactive) | > 100 µM (inactive) |  | > 100 | > 100 µM (inactive) | > 100 µM (inactive) | > 100 µM (inactive) | > 100 µM (inactive) | > 100 µM (inactive) | > 100 µM (inactive) | > 100 µM (inactive) | > 100 µM (inactive) | > 100 µM (inactive) | > 100 µM (inactive) | > 100 µM (inactive) | > 100 µM (inactive) | > 100 µM (inactive)
12 | O=C(O)/C=C/C(=O)N1C/C(=C\c2ccccc2)C(=O)/C(=C/c2ccccc2)C1 | 7.76 µM (inactive) | 21.4 µM (inactive) | 3.13 µM (inactive) | 2.81 µM (inactive) | 2.37 µM (inactive) |  | 6.73 | 4.73 µM (inactive) | 4.72 µM (inactive) | 17.9 µM (inactive) | 16.7 µM (inactive) | 11.3 µM (inactive) | 3.3 µM (inactive) | 10.2 µM (inactive) | 8.95 µM (inactive) |  | 1.78 µM (inactive) |  | 7.43 µM (inactive) | 7.96 µM (inactive)
13 | COC(=O)/C(=N\NC(N)=S)C(C#N)c1ccccc1 (configuration not stated) | > 100 µM (inactive) | > 100 µM (inactive) | > 100 µM (inactive) | > 100 µM (inactive) | > 100 µM (inactive) |  | > 100 |  | > 100 µM (inactive) | > 100 µM (inactive) | > 100 µM (inactive) | > 100 µM (inactive) | > 100 µM (inactive) | > 100 µM (inactive) | > 100 µM (inactive) |  | > 100 µM (inactive) |  | > 100 µM (inactive) | > 100 µM (inactive)
14 | CC(N)Cc1ccc(Cl)cc1 (configuration not stated) | 50.8 µM (inactive) | > 100 µM (inactive) | > 100 µM (inactive) | 68.9 µM (inactive) | 50.6 µM (inactive) |  | 51.6 |  | > 100 µM (inactive) | 58.5 µM (inactive) | 42.4 µM (inactive) | > 100 µM (inactive) | > 100 µM (inactive) | > 100 µM (inactive) | 72.1 µM (inactive) |  | > 100 µM (inactive) |  | > 100 µM (inactive) | 37.6 µM (inactive)
15 | C[N+](C)(C)CCOP(=O)([O-])OCCNC(=O)c1ccc2ccccc2c1 | > 100 µM (inactive) | > 100 µM (inactive) | > 100 µM (inactive) | > 100 µM (inactive) | > 100 µM (inactive) |  | > 100 | > 100 µM (inactive) | > 100 µM (inactive) | > 100 µM (inactive) | > 100 µM (inactive) | > 100 µM (inactive) | > 100 µM (inactive) | > 100 µM (inactive) | > 100 µM (inactive) | > 100 µM (inactive) | > 100 µM (inactive) | > 100 µM (inactive) |  | > 100 µM (inactive)
16 | CC(C)(C)OC(=O)NC(Cc1ccccc1)C(=O)NC(Cc1ccccc1)C(=O)NCC(=O)OCc1ccccc1 (stereo not drawn) (Boc-Phe-Phe-Gly-OBn; configuration not given here) | 16.7 µM (inactive) |  | 7.93 µM (inactive) | 22.2 µM (inactive) | 12.5 µM (inactive) |  | 17.9 | 51.5 µM (inactive) | 44.5 µM (inactive) | 37.5 µM (inactive) | 13.2 µM (inactive) | 35 µM (inactive) | 17.1 µM (inactive) | 29.8 µM (inactive) |  | > 10 µM (inactive) | 15.4 µM (inactive) | 77.6 µM (inactive) | 24.7 µM (inactive) | 19.7 µM (inactive)
